Laboratory results taken from PubChem BioAssay (NCI).
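Five compound concentrations were applied to cells in 96-well plates for 48 hours; endpoints were derived by simple linear interpolation of the resulting dose-response curve. TGI: total growth inhibition.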

Tests used:
Assay in all cases: NCI anticancer screen, dose series, 48 h
SN12C renal = tested on: SN12C renal
SK-MEL-5 melanoma = tested on: SK-MEL-5 melanoma
A498 renal = tested on: A498 renal
T-47D breast = tested on: T-47D breast
SW-620 colon = tested on: SW-620 colon
SK-OV-3 ovarian = tested on: SK-OV-3 ovarian
MDA-MB-435 = tested on: MDA-MB-435
CAKI-1 renal = tested on: CAKI-1 renal
BT-549 breast = tested on: BT-549 breast
COLO 205 colon = tested on: COLO 205 colon
OVCAR-4 ovarian = tested on: OVCAR-4 ovarian
LOX IMVI melanoma = tested on: LOX IMVI melanoma
HOP-62 NSCLC = tested on: HOP-62 NSCLC
SK-MEL-28 melanoma = tested on: SK-MEL-28 melanoma
RXF 393 renal = tested on: RXF 393 renal
HT29 colon = tested on: HT29 colon
HCT-15 colon = tested on: HCT-15 colon
SF-295 CNS = tested on: SF-295 CNS
UACC-257 melanoma = tested on: UACC-257 melanoma
EKVX NSCLC = tested on: EKVX NSCLC
HS 578T breast = tested on: HS 578T breast
NCI-H460 lung = tested on: NCI-H460 lung
786-0 renal = tested on: 786-0 renal
OVCAR-8 ovarian = tested on: OVCAR-8 ovarian
CCRF-CEM leukemia = tested on: CCRF-CEM leukemia
U251 CNS = tested on: U251 CNS
SK-MEL-2 melanoma = tested on: SK-MEL-2 melanoma
MDA-MB-231 breast = tested on: MDA-MB-231 breast
MDA-N = tested on: MDA-N
SR leukemia = tested on: SR leukemia
A549 NSCLC = tested on: A549 NSCLC
SNB-75 CNS = tested on: SNB-75 CNS
HCT-116 colon = tested on: HCT-116 colon
M14 melanoma = tested on: M14 melanoma
NCI-H522 lung = tested on: NCI-H522 lung
OVCAR-3 ovarian = tested on: OVCAR-3 ovarian
UO-31 renal = tested on: UO-31 renal
MALME-3M melanoma = tested on: MALME-3M melanoma
UACC-62 melanoma = tested on: UACC-62 melanoma
MOLT-4 leukemia = tested on: MOLT-4 leukemia
PC-3 prostate = tested on: PC-3 prostate
KM12 colon = tested on: KM12 colon
OVCAR-5 ovarian = tested on: OVCAR-5 ovarian
IGROV1 ovarian = tested on: IGROV1 ovarian
HL-60(TB) leukemia = tested on: HL-60(TB) leukemia
SF-539 CNS = tested on: SF-539 CNS
DU-145 prostate = tested on: DU-145 prostate
NCI-H226 lung = tested on: NCI-H226 lung
SNB-19 CNS = tested on: SNB-19 CNS
NCI-H23 lung = tested on: NCI-H23 lung
MCF7 breast = tested on: MCF7 breast
ACHN renal = tested on: ACHN renal
SF-268 CNS = tested on: SF-268 CNS
HCC-2998 colon = tested on: HCC-2998 colon
TK-10 renal = tested on: TK-10 renal
NCI/ADR-RES ovarian = tested on: NCI/ADR-RES ovarian
HOP-92 NSCLC = tested on: HOP-92 NSCLC
RPMI-8226 leukemia = tested on: RPMI-8226 leukemia
K-562 leukemia = tested on: K-562 leukemia

With `CCC(O)CC1OC2(CCC1C)CC1OC(=O)/C=C\C(C)(O)C(O)C(C)C(O)C(OC3CC(OC)C(O)C(C)O3)C(O)C(C)(O)CCC/C=C/C3CC(C)COC3(O)CC(O2)C1C` (configuration not stated) the TGI (SN12C renal) was greater than 77.3 µM, the TGI (SK-MEL-5 melanoma) was 8.9 µM and the TGI (A498 renal) was greater than 100 µM. For the same compound, the TGI (T-47D breast) was 23.6 µM, the TGI (SW-620 colon) was greater than 100 µM and the TGI (SK-OV-3 ovarian) was greater than 100 µM. For the same compound, the TGI (MDA-MB-435) was 25.4 µM, the TGI (CAKI-1 renal) was 33.3 µM and the TGI (BT-549 breast) was 41.2 µM. For the same compound, the TGI (COLO 205 colon) was 17.2 µM, the TGI (OVCAR-4 ovarian) was 48.6 µM and the TGI (LOX IMVI melanoma) was 36.7 µM. The TGI (HOP-62 NSCLC) was 35.7 µM, the TGI (SK-MEL-28 melanoma) was 54.6 µM and the TGI (RXF 393 renal) was greater than 100 µM. For the same compound, the TGI (HT29 colon) was 35.1 µM, the TGI (HCT-15 colon) was 56.8 µM and the TGI (SF-295 CNS) was greater than 41.8 µM. The TGI (UACC-257 melanoma) was 15.4 µM, the TGI (EKVX NSCLC) was 26 µM and the TGI (HS 578T breast) was 38.2 µM. For the same compound, the TGI (NCI-H460 lung) was greater than 75.2 µM, the TGI (786-0 renal) was greater than 89.4 µM and the TGI (OVCAR-8 ovarian) was 24.6 µM. For the same compound, the TGI (CCRF-CEM leukemia) was greater than 60.5 µM, the TGI (U251 CNS) was greater than 100 µM and the TGI (SK-MEL-2 melanoma) was 29.6 µM. It also gave a TGI (MDA-MB-231 breast) greater than 77.9 µM, a TGI (MDA-N) of 23.8 µM and a TGI (SR leukemia) greater than 80.7 µM. It also gave a TGI (A549 NSCLC) greater than 100 µM, a TGI (SNB-75 CNS) of 27.3 µM and a TGI (HCT-116 colon) of 29.5 µM. For the same compound, the TGI (M14 melanoma) was 22 µM, the TGI (NCI-H522 lung) was 16.3 µM and the TGI (OVCAR-3 ovarian) was 27.2 µM. It also gave a TGI (UO-31 renal) of 68.7 µM, a TGI (MALME-3M melanoma) of 35.5 µM and a TGI (UACC-62 melanoma) of 32.2 µM. The TGI (MOLT-4 leukemia) was 7.84 µM, the TGI (PC-3 prostate) was 20.4 µM and the TGI (KM12 colon) was 16.8 µM. The TGI (OVCAR-5 ovarian) was 53 µM, the TGI (IGROV1 ovarian) was 47.1 µM and the TGI (HL-60(TB) leukemia) was 10.6 µM. For the same compound, the TGI (SF-539 CNS) was 44.9 µM, the TGI (DU-145 prostate) was greater than 100 µM and the TGI (NCI-H226 lung) was 27.3 µM. For the same compound, the TGI (SNB-19 CNS) was greater than 100 µM, the TGI (NCI-H23 lung) was 71 µM and the TGI (MCF7 breast) was 30.2 µM. For the same compound, the TGI (ACHN renal) was 50.9 µM, the TGI (SF-268 CNS) was 90.1 µM and the TGI (HCC-2998 colon) was 62.3 µM. The TGI (TK-10 renal) was 37 µM, the TGI (NCI/ADR-RES ovarian) was 45.1 µM and the TGI (HOP-92 NSCLC) was greater than 100 µM.
`COc1cc(C)c2c(c1C=O)Oc1c(c(C)c(O)c3c1C(O)OC3=O)OC2=O` (configuration not stated) gave a TGI (SN12C renal) greater than 100 µM, a TGI (SK-MEL-5 melanoma) of 61.5 µM and a TGI (A498 renal) greater than 100 µM. The TGI (T-47D breast) was 65.1 µM, the TGI (SW-620 colon) was greater than 100 µM and the TGI (SK-OV-3 ovarian) was greater than 100 µM. It also gave a TGI (MDA-MB-435) greater than 100 µM, a TGI (CAKI-1 renal) greater than 100 µM and a TGI (BT-549 breast) greater than 100 µM. It also gave a TGI (COLO 205 colon) greater than 100 µM, a TGI (OVCAR-4 ovarian) greater than 100 µM and a TGI (LOX IMVI melanoma) greater than 100 µM. It also gave a TGI (HOP-62 NSCLC) greater than 100 µM, a TGI (SK-MEL-28 melanoma) greater than 100 µM and a TGI (RXF 393 renal) of 96.7 µM. It also gave a TGI (HT29 colon) greater than 100 µM, a TGI (HCT-15 colon) of 46.4 µM and a TGI (SF-295 CNS) greater than 100 µM. The TGI (UACC-257 melanoma) was greater than 100 µM, the TGI (EKVX NSCLC) was greater than 100 µM and the TGI (HS 578T breast) was greater than 100 µM. It also gave a TGI (786-0 renal) greater than 100 µM, a TGI (OVCAR-8 ovarian) greater than 100 µM and a TGI (U251 CNS) greater than 100 µM. The TGI (MDA-MB-231 breast) was 68.3 µM, the TGI (MDA-N) was 43.8 µM and the TGI (RPMI-8226 leukemia) was 49.6 µM. It also gave a TGI (SR leukemia) of 60.9 µM, a TGI (A549 NSCLC) greater than 100 µM and a TGI (SNB-75 CNS) greater than 100 µM. It also gave a TGI (HCT-116 colon) greater than 100 µM, a TGI (M14 melanoma) greater than 100 µM and a TGI (NCI-H522 lung) of 83.8 µM. It also gave a TGI (OVCAR-3 ovarian) greater than 100 µM, a TGI (UO-31 renal) greater than 100 µM and a TGI (MALME-3M melanoma) of 52.6 µM. It also gave a TGI (UACC-62 melanoma) of 81.7 µM, a TGI (MOLT-4 leukemia) of 49.5 µM and a TGI (PC-3 prostate) greater than 100 µM. The TGI (KM12 colon) was 52.3 µM, the TGI (OVCAR-5 ovarian) was greater than 100 µM and the TGI (IGROV1 ovarian) was 60.9 µM. It also gave a TGI (HL-60(TB) leukemia) of 48.4 µM, a TGI (SF-539 CNS) greater than 100 µM and a TGI (DU-145 prostate) greater than 100 µM. It also gave a TGI (NCI-H226 lung) greater than 100 µM, a TGI (SNB-19 CNS) of 60.4 µM and a TGI (NCI-H23 lung) of 95 µM. For the same compound, the TGI (MCF7 breast) was 74 µM, the TGI (ACHN renal) was greater than 100 µM and the TGI (SF-268 CNS) was 68 µM. The TGI (HCC-2998 colon) was 44.5 µM, the TGI (TK-10 renal) was greater than 100 µM and the TGI (NCI/ADR-RES ovarian) was greater than 100 µM. It also gave a TGI (HOP-92 NSCLC) greater than 100 µM.
`C/C(=N\NC(=S)Nc1ccccc1)c1nc2ncccc2[nH]1` showed a TGI (SN12C renal) of 36.3 µM, a TGI (SK-MEL-5 melanoma) of 15 µM and a TGI (A498 renal) of 33.1 µM. For the same compound, the TGI (K-562 leukemia) was 60.8 µM, the TGI (T-47D breast) was 24 µM and the TGI (SW-620 colon) was greater than 100 µM. For the same compound, the TGI (SK-OV-3 ovarian) was greater than 100 µM, the TGI (MDA-MB-435) was 60.3 µM and the TGI (CAKI-1 renal) was greater than 100 µM. It also gave a TGI (BT-549 breast) of 26.2 µM, a TGI (COLO 205 colon) greater than 100 µM and a TGI (OVCAR-4 ovarian) of 47.4 µM. The TGI (LOX IMVI melanoma) was 15.8 µM, the TGI (HOP-62 NSCLC) was 59 µM and the TGI (SK-MEL-28 melanoma) was 6.79 µM. The TGI (HT29 colon) was 18.8 µM, the TGI (HCT-15 colon) was 19.8 µM and the TGI (SF-295 CNS) was 18.3 µM. The TGI (UACC-257 melanoma) was 11.1 µM, the TGI (EKVX NSCLC) was 6.12 µM and the TGI (HS 578T breast) was 77.7 µM. The TGI (NCI-H460 lung) was 13.8 µM, the TGI (786-0 renal) was 74 µM and the TGI (OVCAR-8 ovarian) was 16 µM. The TGI (U251 CNS) was 16.9 µM, the TGI (SK-MEL-2 melanoma) was 47 µM and the TGI (MDA-MB-231 breast) was 55.5 µM. It also gave a TGI (MDA-N) greater than 100 µM, a TGI (RPMI-8226 leukemia) of 84.4 µM and a TGI (SR leukemia) greater than 100 µM. For the same compound, the TGI (A549 NSCLC) was greater than 100 µM, the TGI (SNB-75 CNS) was 79.2 µM and the TGI (HCT-116 colon) was 14 µM. The TGI (M14 melanoma) was greater than 100 µM, the TGI (NCI-H522 lung) was 17.1 µM and the TGI (OVCAR-3 ovarian) was 17.1 µM. The TGI (UO-31 renal) was 7.47 µM, the TGI (MALME-3M melanoma) was 57.7 µM and the TGI (MOLT-4 leukemia) was 16.8 µM. It also gave a TGI (PC-3 prostate) greater than 100 µM, a TGI (KM12 colon) greater than 100 µM and a TGI (OVCAR-5 ovarian) of 61 µM. It also gave a TGI (IGROV1 ovarian) of 24.2 µM, a TGI (HL-60(TB) leukemia) greater than 100 µM and a TGI (SF-539 CNS) of 6.8 µM. It also gave a TGI (DU-145 prostate) of 18.2 µM, a TGI (NCI-H226 lung) of 13.2 µM and a TGI (SNB-19 CNS) of 60.1 µM. It also gave a TGI (NCI-H23 lung) of 48.7 µM, a TGI (MCF7 breast) of 20.3 µM and a TGI (ACHN renal) of 47.8 µM. It also gave a TGI (SF-268 CNS) of 39 µM, a TGI (HCC-2998 colon) of 20.5 µM and a TGI (NCI/ADR-RES ovarian) of 22 µM. It also gave a TGI (HOP-92 NSCLC) greater than 100 µM.
